This note sets out measurements from PubChem BioAssay (NCI).

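Exposure lasted 48 hours, with cells grown in 96-well plates and compounds tested at five concentrations. GI50: concentration for 50% inhibition of growth. TGI: total growth inhibition.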

Some test systems named below: 786-0 renal; HT29 colon; LOX IMVI melanoma; NCI-H226 lung; NCI-H460 lung; NCI/ADR-RES ovarian; SF-539 CNS; SK-OV-3 ovarian; SN12C renal; UO-31 renal.
Holding throughout (assay): growth of human tumour cells (NCI), 48 h

`C=C1C(=O)O[C@H]2[C@H]1CC/C(Cn1cc(-c3ccc(N)cc3)nn1)=C\CC[C@@]1(C)O[C@@H]21`: the GI50 was 1.98 µM in the assay with 786-0 renal; 2.14 µM with HT29 colon; 1.51 µM with LOX IMVI melanoma; 3.34 µM in the assay with NCI-H226 lung; 10.4 µM in the assay on NCI-H460 lung; 14.5 µM with NCI/ADR-RES ovarian. The GI50 is 2.77 µM in the assay with SF-539 CNS, 18.3 µM in the assay with SK-OV-3 ovarian, 3.48 µM with SN12C renal and 1.87 µM in the assay with UO-31 renal. Moreover, the TGI with 786-0 renal is 4.62 µM; with HT29 colon, 5.47 µM; in the assay with LOX IMVI melanoma, 2.88 µM; in the assay with NCI-H226 lung, 13.2 µM; in the assay with NCI-H460 lung, 29.7 µM; in the assay with NCI/ADR-RES ovarian, 38.2 µM. Also, the TGI in the assay with SF-539 CNS turned out to be 8.75 µM; in the assay with SK-OV-3 ovarian, 34.4 µM; in the assay on SN12C renal it was 15.1 µM; with UO-31 renal it was 10.1 µM.

Regarding `CCCc1nc(Cl)nc(Cl)c1Cl`, the TGI in the assay on 786-0 renal was 1.43 µM; in the assay with HT29 colon it was 1.56 µM; in the assay with LOX IMVI melanoma, 1.62 µM; in the assay on NCI-H226 lung it was 8.97 µM; in the assay with NCI-H460 lung, 5.66 µM; with NCI/ADR-RES ovarian it was more than 22.4 µM. Moreover, the TGI with SF-539 CNS stood at 2.94 µM; in the assay with SK-OV-3 ovarian it was 6.95 µM; in the assay with SN12C renal it was 2.13 µM; in the assay on UO-31 renal it was 0.111 µM.

On to `COc1ccc(-c2nc(-c3nc4cc(Cl)c(F)cc4[nH]3)c3ccccn23)cc1`, for which the GI50 with 786-0 renal is 8.94 µM; in the assay on HT29 colon, 4.26 µM; with LOX IMVI melanoma it was 5.36 µM; in the assay on NCI-H226 lung, 14.5 µM; with NCI-H460 lung it was 5.43 µM; with NCI/ADR-RES ovarian it was 5.5 µM. Besides, the GI50 in the assay on SF-539 CNS was 39.8 µM; with SK-OV-3 ovarian, more than 100 µM; with SN12C renal it was 11.2 µM; in the assay on UO-31 renal it was 2.62 µM. Besides, the TGI with 786-0 renal, with HT29 colon, with LOX IMVI melanoma, in the assay with NCI-H226 lung, with NCI-H460 lung and in the assay on NCI/ADR-RES ovarian was more than 100 µM throughout. Moreover, the TGI in the assay with SF-539 CNS was more than 100 µM; with SK-OV-3 ovarian it was more than 100 µM; in the assay on SN12C renal, more than 100 µM; with UO-31 renal, 35.7 µM.

For the compound `Nc1nc(N)c2cc(Sc3ccc4ccccc4c3)ccc2n1`, the TGI was 3.27 µM with 786-0 renal; 3.7 µM with HT29 colon; 1.93 µM in the assay with LOX IMVI melanoma; 18.1 µM with NCI-H226 lung; 2.26 µM in the assay on NCI-H460 lung; 4.35 µM in the assay on NCI/ADR-RES ovarian. Moreover, the TGI with SF-539 CNS came out at 5.04 µM; in the assay on SK-OV-3 ovarian, 17.5 µM; with SN12C renal, 8.93 µM; in the assay on UO-31 renal, 7.69 µM.

In the case of `COc1ccc2c(c1)C(=O)/C(=C/c1cccc(OCC(=O)Nc3nc(C)c(C)s3)c1)O2`, the GI50 is 0.0238 µM in the assay on 786-0 renal; 0.0302 µM with HT29 colon; less than 0.0127 µM with LOX IMVI melanoma; 1.85 µM in the assay with NCI-H226 lung; 2.71 µM in the assay with NCI-H460 lung; 3.76 µM in the assay with NCI/ADR-RES ovarian. Further, the GI50 in the assay with SF-539 CNS was 0.052 µM; with SK-OV-3 ovarian, 12.8 µM; with SN12C renal it was 0.171 µM; in the assay on UO-31 renal it was 0.0222 µM. In addition, the TGI in the assay on 786-0 renal was 0.0545 µM; with HT29 colon, 0.111 µM; in the assay with LOX IMVI melanoma, less than 0.0178 µM; in the assay on NCI-H226 lung it was 5.27 µM; in the assay with NCI-H460 lung, 8.49 µM; with NCI/ADR-RES ovarian, 29.6 µM. The TGI with SF-539 CNS stood at 0.0965 µM; with SK-OV-3 ovarian, 25.6 µM; in the assay on SN12C renal it was 2.66 µM; in the assay on UO-31 renal, 0.0378 µM.

As to `CCC(=O)N/S(=N/S(=O)(=O)c1ccccc1)C(Cl)(Cl)Cl` (stereo not given), the TGI with 786-0 renal, in the assay with HT29 colon, in the assay with LOX IMVI melanoma, in the assay on NCI-H226 lung, in the assay with NCI-H460 lung and in the assay with NCI/ADR-RES ovarian was more than 100 µM in each case. Further, the TGI with SF-539 CNS, with SK-OV-3 ovarian, in the assay with SN12C renal and with UO-31 renal was more than 100 µM in each case.

Consider `C/C(=C(/c1ccccc1)c1ccc(OCC(O)CNCCN2CCOCC2)cc1)c1ccccc1` (stereo not given), for which the GI50 with 786-0 renal is 1.74 µM; with HT29 colon, 2.03 µM; in the assay with LOX IMVI melanoma it was 1.72 µM; in the assay on NCI-H226 lung, 12.1 µM; in the assay with NCI-H460 lung it was 1.8 µM; with NCI/ADR-RES ovarian, 4.92 µM. For the same compound, the GI50 was 1.63 µM in the assay on SF-539 CNS, 11.1 µM with SK-OV-3 ovarian, 5.08 µM in the assay on SN12C renal and 1.37 µM with UO-31 renal. The TGI came to 3.32 µM with 786-0 renal; 4.86 µM in the assay with HT29 colon; 3.12 µM with LOX IMVI melanoma; 29.3 µM in the assay with NCI-H226 lung; 3.4 µM in the assay with NCI-H460 lung; 17.2 µM in the assay on NCI/ADR-RES ovarian. Moreover, the TGI with SF-539 CNS was 2.99 µM; with SK-OV-3 ovarian it was 24.8 µM; in the assay on SN12C renal, 18.5 µM; in the assay with UO-31 renal, 2.77 µM.

With `COc1cc(C2=NN(C(C)=O)C(c3cc(OC)c(OC)c(OC)c3)C2)ccc1O` (stereo not given), the GI50 is 0.458 µM with 786-0 renal; 0.358 µM in the assay with HT29 colon; 0.618 µM in the assay with LOX IMVI melanoma; 23.6 µM in the assay with NCI-H226 lung; 0.346 µM in the assay on NCI-H460 lung; 0.283 µM with NCI/ADR-RES ovarian. The GI50 in the assay with SF-539 CNS is 0.271 µM; in the assay with SK-OV-3 ovarian, 0.307 µM; in the assay with SN12C renal, 0.882 µM; in the assay with UO-31 renal it was 0.809 µM. Further, the TGI with 786-0 renal is more than 100 µM; in the assay on HT29 colon, more than 100 µM; with LOX IMVI melanoma, more than 100 µM; in the assay on NCI-H226 lung, more than 100 µM; with NCI-H460 lung it was more than 40.8 µM; with NCI/ADR-RES ovarian, more than 100 µM. Besides, the TGI in the assay with SF-539 CNS is 1.54 µM; in the assay on SK-OV-3 ovarian it was more than 100 µM; in the assay with SN12C renal, more than 100 µM; in the assay with UO-31 renal, more than 100 µM.

As to `COc1cc(OCc2cccc(-c3ccccc3)c2C)cc(OC)c1CN1CCCCC1C(=O)NCCOCCOCCN` (stereo not given), the GI50 was 1.83 µM in the assay with 786-0 renal; 2.38 µM in the assay on HT29 colon; 1.7 µM with LOX IMVI melanoma; 14.7 µM in the assay on NCI-H226 lung; 1.83 µM in the assay on NCI-H460 lung; 12.6 µM in the assay with NCI/ADR-RES ovarian. In addition, the GI50 was 1.74 µM with SF-539 CNS, 10.7 µM with SK-OV-3 ovarian, 2.47 µM in the assay on SN12C renal and 10.6 µM with UO-31 renal. In addition, the TGI in the assay with 786-0 renal came to 3.53 µM; in the assay on HT29 colon it was 6.65 µM; in the assay on LOX IMVI melanoma it was 3.21 µM; in the assay with NCI-H226 lung, 30.9 µM; in the assay on NCI-H460 lung it was 3.73 µM; in the assay with NCI/ADR-RES ovarian, 27.2 µM. The TGI in the assay on SF-539 CNS was 3.25 µM; in the assay with SK-OV-3 ovarian, 24 µM; in the assay on SN12C renal, 7.01 µM; in the assay with UO-31 renal, 22.9 µM.
